This data set can be described thus: Solubility determination of solid forms of Compound 1 in solvents (Example 52). The data set is classed as physicochemical. The text has this:
X-Ray Powder diffraction (XRPD), differential scanning calorimetry (DSC), thermal gravimetric analysis (TGA), and UV-Metric/pH-Metric Titration (SiriusT3) were used to characterize Form I of Compound 1. UPLC was used to evaluate solubility of each material in various vehicles.

Where a name gives a salt, the structure may show the parent alone. Bounds are passed on as bounds.

As for `CCCN(Cc1ccc(-c2csc(N(C)C)n2)cc1)c1cc(C)nc2c(-c3cnc(N(C)C)cc3C)c(C)nn12` [Compound 1-3 (HCl), 5-{7-[({4-[2-(dimethylamino)-1,3-thiazol-4-yl]phenyl}methyl)(propyl)amino]-2,5-dimethylpyrazolo[1,5-a]pyrimidin-3-yl}-N,N,4-trimethylpyridin-2-amine], the “Measured pH” value was “pH 8.7” (50 mM BB pH 9); “pH 3.2” (50 mM CB pH 3); “pH 3.9” (50 mM CB pH 4); “pH 5.8” (50 mM CB pH 6); “pH 2.9” (50 mM PB pH 2); “pH 7.5” (50 mM PB pH 8). Moreover, for the setting “100% H2O”, the “Measured pH” value is recorded as “pH 3.3”. Further, the Solubility result (50 mM BB pH 9) was “Below”; the Solubility (50 mM CB pH 3) is on record as 0.8 mg/mL FB; the Solubility (50 mM CB pH 4) is listed as 0 mg/mL FB; the Solubility (50 mM CB pH 6) is given as 0 mg/mL FB; the Solubility (50 mM PB pH 2) came to 4.4 mg/mL FB; the Solubility (50 mM PB pH 8) was 0 mg/mL FB. In addition, the Solubility (100% H2O) was found to be 0.4 mg/mL FB; the Solubility (ACN) is 0.7 mg/mL FB; the Solubility (Acetone) turned out to be 0.4 mg/mL FB; the Solubility (DMSO) is listed as 0.9 mg/mL FB; the Solubility (EtOAc) came to 0.1 mg/mL FB; the Solubility (EtOH) came to 5.3 mg/mL FB. The Solubility is recorded as 0.8 mg/mL FB (IPA) and 32.3 mg/mL FB (MeOH).
As to `CCCN(Cc1ccc(-c2csc(N(C)C)n2)cc1)c1cc(C)nc2c(-c3cnc(N(C)C)cc3C)c(C)nn12` [Compound 1-4 (Maleate), 5-{7-[({4-[2-(dimethylamino)-1,3-thiazol-4-yl]phenyl}methyl)(propyl)amino]-2,5-dimethylpyrazolo[1,5-a]pyrimidin-3-yl}-N,N,4-trimethylpyridin-2-amine], the “Measured pH” value reads like this: (50 mM BB pH 9) “pH 4.3”; (50 mM CB pH 3) “pH 3.2”; (50 mM CB pH 4) “pH 3.9”; (50 mM CB pH 6) “pH 5.3”; (50 mM PB pH 2) “pH 2.5”; (50 mM PB pH 8) “pH 6.2”. Further, the “Measured pH” value (100% H2O) is “pH 3.4”. The Solubility result runs as follows: (50 mM BB pH 9) “Below”; (50 mM CB pH 3) 0.3 mg/mL FB; (50 mM CB pH 4) 0 mg/mL FB; (50 mM CB pH 6) “Below”; (50 mM PB pH 2) 3.9 mg/mL FB; (50 mM PB pH 8) “Below”. In addition, the Solubility is reported as 0 mg/mL FB (100% H2O); 3.6 mg/mL FB (ACN); 4.1 mg/mL FB (Acetone); greater than 2.5 mg/mL FB (DMSO); 1.2 mg/mL FB (EtOAc); 6.5 mg/mL FB (EtOH). Also, the Solubility by setting is: (IPA) 1.9 mg/mL FB; (MeOH) 27.1 mg/mL FB.
As to `CCCN(Cc1ccc(-c2csc(N(C)C)n2)cc1)c1cc(C)nc2c(-c3cnc(N(C)C)cc3C)c(C)nn12` [Compound 1-5 (Mesylate), 5-{7-[({4-[2-(dimethylamino)-1,3-thiazol-4-yl]phenyl}methyl)(propyl)amino]-2,5-dimethylpyrazolo[1,5-a]pyrimidin-3-yl}-N,N,4-trimethylpyridin-2-amine], the “Measured pH” value is, setting by setting: (50 mM BB pH 9) “pH 3.2”; (50 mM CB pH 3) “pH 3.4”; (50 mM CB pH 4) “pH 4.0”; (50 mM CB pH 6) “pH 5.1”; (50 mM PB pH 2) “pH 3.0”; (50 mM PB pH 8) “pH 6.7”. For the same molecule, the “Measured pH” value (100% H2O) is recorded as “pH 3.5”. Besides, the Solubility reads like this: (50 mM BB pH 9) 0.2 mg/mL FB; (50 mM CB pH 3) 1.0 mg/mL FB; (50 mM CB pH 4) 0.1 mg/mL FB; (50 mM CB pH 6) 0 mg/mL FB; (50 mM PB pH 2) 4.7 mg/mL FB; (50 mM PB pH 8) 0 mg/mL FB. Further, the Solubility is, setting by setting: (100% H2O) 0.8 mg/mL FB; (ACN) 3.1 mg/mL FB; (Acetone) 1.0 mg/mL FB; (DMSO) greater than 2.1 mg/mL FB; (EtOAc) 0.6 mg/mL FB; (EtOH) 16.6 mg/mL FB. Besides, the Solubility worked out at 2.3 mg/mL FB (IPA) and 134.4 mg/mL FB (MeOH).
